This assay has as its target Gamma-aminobutyric acid receptor subunit alpha-1 (Rattus norvegicus, UniProt P62813).

The structures appear in SMILES notation. Several values for one entry are separate records, joined by “and”; a condition that tells them apart may be missing. Identical values can stand only once.

By Ki is commonly meant a measure of affinity in units of concentration, obtained from inhibition or displacement. A lower Ki goes with tighter binding.

Chain of Gamma-aminobutyric acid receptor subunit alpha-1 (P62813 whole entry): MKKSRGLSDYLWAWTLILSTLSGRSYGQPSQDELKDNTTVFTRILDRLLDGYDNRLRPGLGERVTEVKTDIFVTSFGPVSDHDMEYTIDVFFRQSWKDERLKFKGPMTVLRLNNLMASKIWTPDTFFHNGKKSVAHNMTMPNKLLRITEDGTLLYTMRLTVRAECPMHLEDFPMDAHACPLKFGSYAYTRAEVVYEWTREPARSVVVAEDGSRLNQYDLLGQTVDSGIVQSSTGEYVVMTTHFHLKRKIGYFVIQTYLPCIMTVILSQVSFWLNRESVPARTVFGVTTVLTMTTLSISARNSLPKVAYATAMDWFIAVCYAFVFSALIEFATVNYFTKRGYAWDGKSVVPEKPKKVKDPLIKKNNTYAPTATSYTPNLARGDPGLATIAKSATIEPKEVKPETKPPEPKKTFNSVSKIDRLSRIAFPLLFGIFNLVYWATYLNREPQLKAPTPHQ

`CCOC(=O)c1cc2c(cn1)[nH]c1ccccc12` gave a Ki of 2.92 µM.

For `OCCN(CCO)c1nc(N2CCCCC2)c2nc(N(CCO)CCO)nc(N3CCCCC3)c2n1` [Dipyridamine], the Ki is 0.0879 µM and 0.162 µM.

The record behind these values is BindingDB's records for doi:10.1016/s0006-2952(97)00433-4 (Tokyo Dental College, 1998).
